For data set [1] the following is noted: mice, IV, 10 mg/kg, plasma; cited from earlier work.
For data set [2], the system named is Mfn2-null (i.e. expressing Mfn1 only) murine embryonic fibroblasts. Description: Mitochondrial elongation. The format is cell-based, mouse. The conditions noted are these: dose-response, compared with 2; result in words.
Data set [3] is described as follows: Plasma and nerve tissue pharmacokinetics, single oral dose in non-fasted mice. The format is in vivo. As to conditions: male, CD-1, mouse, 50 mg/kg.
In data set [4] the test system is mitofusin mRNA expression. The conditions noted are these: transcriptional enhancer of mitofusin mRNA expression; cited from earlier work.

In the case of `O=C(CCCCCc1ccccc1)N[C@H]1CC[C@H](O)CC1` [Compound 2], the C0 in data set [1] was 50,600 ng/mL.
For the molecule `O=C(CCCCc1ccccc1)N[C@H]1CC[C@H](O)CC1` [Compound 3, N-((1r,4r)-4-hydroxycyclohexyl)-5-phenylpentanamide], the “mitofusin activation measured as ability to promote mitochondrial fusion (increased aspect ratio)” value in data set [2] is reported as “largely abrogated mitofusin activation”.
The same measure, in the same setting: to `O=C(CCCc1ccccc1)N[C@H]1CC[C@H](O)CC1` [Compound 4, N-((1r,4r)-4-hydroxycyclohexyl)-4-phenylbutanamide] belongs “largely abrogated mitofusin activation”.
As to `O=C(N[C@H]1CC[C@H](O)CC1)C1CC1CCCc1ccccc1` (stereo partly shown) [Compound 5, N-(4-hydroxycyclohexyl)-2-(3-phenylpropyl)cyclopropane-1-carboxamide], in data set [3] (plasma), the MRT inf (commonly the average time that molecules of a dose stay in the body) amounted to 3.58 h and the Tmax (commonly the time from dosing to the highest level) stood at 0.5 h.
On to `O=C(N[C@H]1CC[C@H](O)CC1)[C@@H]1C[C@H]1CCCc1ccccc1` [Compound 5B, N-(4-hydroxycyclohexyl)-2-(3-phenylpropyl)cyclopropane-1-carboxamide], for which, in data set [3] (brain and plasma), the Kp (commonly tissue or fluid exposure divided by exposure in the circulation) stood at 0.394.
For `Cc1oncc1C(=O)Nc1ccc(C(F)(F)F)cc1` [leflunomide], the effective concentrations in data set [4] is 10 to 50 µM.

These data come from publication PMC8632069 (Journal of medicinal chemistry, 2021).
